Assays:
[1] = molecular target: T1, Human liver cathepsin D (Homo sapiens, UniProt P07339); assay: Cathepsin D (CTSD) human pepsin aspartic peptidase enzymatic assay (Eurofins Panlabs); assay type: biochemical; details: for Inhibition of CTSD (%): 190 mU/mL enzyme, modified acetate buffer pH 4.0, 15 min preincubation at 37 °C, 20 μM MOCAc substrate for 10 min, spectrofluorimetric read-out, duplicate, N.A. = not active
T1 construct: tissue Eurofins Panlabs Discovery Services (ran the assay); host or cells: human liver
T1 sequence (P07339 65-412): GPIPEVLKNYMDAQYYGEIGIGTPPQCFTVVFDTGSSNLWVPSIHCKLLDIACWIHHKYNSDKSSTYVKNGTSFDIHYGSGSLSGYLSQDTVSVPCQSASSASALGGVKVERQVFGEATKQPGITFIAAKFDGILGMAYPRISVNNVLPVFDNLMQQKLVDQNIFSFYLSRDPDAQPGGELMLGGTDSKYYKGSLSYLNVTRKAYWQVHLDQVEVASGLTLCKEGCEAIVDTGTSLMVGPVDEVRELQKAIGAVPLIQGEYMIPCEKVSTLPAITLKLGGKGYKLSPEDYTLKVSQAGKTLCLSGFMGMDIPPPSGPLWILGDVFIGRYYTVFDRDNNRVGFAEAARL
Procedure: The CTSD-inhibition assay was performed at Eurofins Panlabs Discovery Services by measuring the percentage inhibition at concentrations of 0.5 and 1.0 μM (Table 1).
Human liver cathepsin D was used for the enzymatic essay. Test compound or vehicle was preincubated with 190 mU/mL enzyme in modified acetate buffer pH 4.0 for 15 minutes at 37 °C. The reaction was initiated by addition of 20 μM MOCAc-[…]Dnp)-D-Arg NH2 for another 10-minute incubation period. Determination of the amount of MOCAc formed was read spectrofluorimetrically at 340 nm/400. Compounds were screened at 0.5 and 1.0 μM. Cathepsin-D-Human-Pepsin-Aspartic-Peptidase-Enzymatic-Assay-Panlabs (eurofinsdiscovery.com, accessed on 22 February 2022).

[2] = test system: CTSD; details: natural izenamides; cited from earlier work
Source text: In 2018, izenamides A-C (1–3), which are linear depsipeptides, were first isolated from the marine cyanobacterium 1605-5 by Suenaga et al (Figure 1). Izenamides A (1) and B (2) contain four amino acids (Pro-O-Me, N-Me-Phe, Ala, and Ile); two α-hydroxy acids (two valic acids for 1, and one valic acid and one isoleucic acid for 2); and a γ-amino-β-hydroxy acid moiety known as statine [(3S,4S)-4-amino-3-hydroxy-6-methylheptanoic acid, Sta]. Izenamide C (3) also contains Pro-O-Me, N-Me-Phe, Ile, and valic acid; however, it contains Gly in place of Ala in 1 and 2, as well as isoleucic acid. ...

Substance	Inhibition of CTSD (%) ([1]; 0.5 μM compound)	Inhibition of CTSD (%) ([1]; 1.0 μM compound)	CTSD-inhibitory activity (in words) ([1]; screened at 0.5 and 1.0 μM)	inhibitory activities against CTSD in vitro (in words) [2]
18-epi-izenamide B [Compound 8]	37.29	40.96	–	–
izenamide A [Compound 1]	10.13	15.55	–	moderate inhibitory activities
izenamide B [Compound 2]	8.12	14.76	–	moderate inhibitory activities

Further lines, with some results ahead:

Inhibition of CTSD (%) ([1]; 0.5 μM compound)	Inhibition of CTSD (%) ([1]; 1.0 μM compound)	CTSD-inhibitory activity (in words) ([1]; screened at 0.5 and 1.0 μM)	Substance	inhibitory activities against CTSD in vitro (in words) [2]
26.99	36.07	–	Sta-incorporated-izenamide C [Compound 7]	–
–	–	no CTSD inhibition	izenamide C [Compound 3]	does not show CTSD inhibition
